According to US12285408B2, “Methods and compositions for the treatment of snake bite” (priority 2021, dated 2025):
Like-named read-outs stand apart in the source and are kept apart here.

Key:
[1] = system: SVMP activity of E. ocellatus, E. carinatus, B. asper and B. arietans venoms; test: In vitro kinetic fluorogenic SVMP assay (Study 2); type: biochemical
Source text: FIG. 10. […] (A) SVMP activities of the five viper venoms quantified by fluorogenic assay. The data presented represent mean measurements and SEMs of area under the curves of fluorescent arbitrary units taken from three independent experimental runs. EOC, E. ocellatus; ECAR, E. carinatus; BAS, Bothrops asper, BAR, Bitis arietans; DRUS, Daboia russelii. (B) The effectiveness of metal chelators and peptidomimetic hydroxamate inhibitors at inhibiting the SVMP activity of the various viper venoms. Drug concentrations from 150 μM to 150 nM (highest to lowest dose tested) are presented. The data is expressed as percentage of the venom-only sample (100%, top dashed line). The negative control is presented as an interval (bottom dashed lines) and represents the values recorded in the PBS-only samples (expressed as percentage of venom activity), where the highest and the lowest values in each set of independent experiments are depicted. […] All data represent triplicate independent repeats with SEMs, where each technical repeat represents the mean of n≥2 technical replicates.
We used an in vitro kinetic fluorogenic assay^28 to assess the SVMP bioactivity of each venom and its inhibition by varying concentrations of the four SVMP-inhibitors.
The SVMP assay measuring metalloproteinase activity and the plasma assay measuring coagulation in the presence or absence of venoms and inhibitors were performed as previously described^28. The SVMP assay kinetically measured cleavage of a quenched fluorogenic substrate (ES010, R&D Biosystems) by venom in the presence or absence of inhibitors.
Briefly, 10 μl of the substrate (supplied as a 6.2 mM stock) was used per 5 ml reaction buffer (150 mM NaCl, 50 mM Tris-CI pH 7.5). Reactions consisted of 10 μl of venom±inhibitors in PBS and 90 μl of substrate. Venoms were used at 1 μg/reaction and final inhibitor concentrations ranged from 150 μM to 150 nM. Samples were preincubated for 30 min at 37° C. and pipetted in triplicate into 384-well plates (Greiner). Thereafter, data was collected on an Omega FLUOstar (BMG Labtech) instrument at an excitation wavelength of 320 nm and emission wavelength of 405 nm at 25° C. for 1 h. The areas under the curve (AUCs) in the 0-40 min interval were calculated for each sample using MARS data analysis software v3.31 (BMG Labtech); this time point was chosen as the time where all fluorescence curves had reached a plateau (maximum fluorescence). For comparing venom-only samples, the means of at least three independent experimental runs for each condition, expressed as AUCs (n≥3), were plotted at each inhibitor concentration with standard error of the mean (SEM). To determine inhibitor efficacy, the AUCs for each of the samples that consisted of venom+inhibitors were transformed and expressed as percentages of the venom-only sample (where the venom was 100%). The negative control (PBS only) was also expressed relative to the venom, and the variation in background was presented as an interval delineated by the lowest and highest values in the PBS-only samples across concentrations and inhibitors for a specific venom. […] However, only the latter two concentrations were sufficiently depleted of DMSO for viable use in the assay.

[2] = system: D. russelii venom coagulation-related activities; test: Plasma clotting assay, whole D. russelii venom; type: biochemical, Daboia russelii; conditions: 150 μM to 150 nM
Procedure: FIG. 12. […] The data is plotted separately for ‘very fast coagulation’, ‘medium coagulation’ and ‘anticoagulation’, based on the slopes of the 0-5 min and 0-20 min readings, and the single endpoint reading at 180 min. The tested inhibitor concentrations are presented alongside the chromatograms. […] The data is presented as the maximal clotting velocity at each concentration, and represents means of triplicate independent repeats with SEMs, where each technical repeat represents the mean of n≥2 technical replicates. The venom-only control (top dashed lines) and the negative control (bottom dashed lines) are presented as intervals and represent the average±SEM observed for the venom-only and PBS controls across all datasets and replicates.
We used a previously developed plasma clotting assay^35 to measure venom-induced coagulation. Briefly, 100 ng of each venom was incubated at 37° C. for 30 min in the presence or absence of inhibitors (150 μM to 150 nM final concentrations). […] The samples were pipetted in triplicate into 384-well plates, and absorbance monitored at 595 nm for 2 h at 25° C. on an Omega FLUOstar instrument. We calculated the maximum clotting velocity of each of the curves as per clot waveform analysis^67, by calculating the maximum of the first derivative. […]

[3] = system: S. miliarius venom; test: Murine preincubation model of venom lethality, North American pit viper venom; type: in vivo, CD-1 mice; conditions: 2.5×LD50 S. miliarius venom preincubated with 60 μg of each drug, i.v., 6 h, n=5
Procedure: Thereafter, the same murine animal model was used to explore the efficacy of the same snake venom metalloproteinase and phospholipase A2 inhibiting drugs as solo and combination treatments against North American pit viper venoms. The intravenous median lethal dose (venom LD50) for C. atrox, C. scutulatus, S. miliariius and A. contortrix venoms was previously determined (3.79 μg, 0.17 μg, 4.87 μg and 4.99 μg per mouse, respectively). […] As described above, all experimental doses were prepared to a volume of 200 μl in PBS and incubated at 37° C. for 30 min prior to their intravenous injection via the tail vein. Animals were monitored for 6 h, and euthanized via rising concentrations of CO2 upon observation of previously defined humane end points that are predicators of lethality (e.g., seizure, pulmonary distress, paralysis, hemorrhage). Deaths, time of death, and survivors were recorded; where death/time of death represents the implementation of euthanasia based on defined humane end points.
These snake species were selected for their taxonomic diversity and clinical importance in the USA, namely: 1) Crotalus atrox (Western diamondback), which is found across the southwest USA and into Mexico and is thought to be the most common cause of snakebite envenoming in USA, 2) Crotalus scutulatus (Mojave rattlesnake), which is also found across the southwest USA and into Mexico, 3) Sistrurus miliarius (pygmy rattlesnake), which is found in the South-East USA, and 4) Agkistrodon contortrix (Eastern copperhead), which is found in central and eastern USA. […] The drug treatments consisted of: DMPS, marimastat, or varespladib as solo drug treatments, or a DMPS and varespladib combination, or a marimastat and varespladib combination.

[4] = cited from earlier work

Compound	lowest concentration effective / required to fully inhibit SVMP activities ([1]; concentrations tested 150 μM to 150 nM) [µM]	IC50 ([1]; range across venoms, 1 μg venom/reaction, read-out: IC50s, inhibition of SVMP activity) [µM]	effect on procoagulant activity of whole D. russelii venom [2]	protection against venom lethality [3]	neutralization of SVMP bioactivity ([1]; marimastat 150 nM-150 μM, batimastat […] and 150 nM only)	oral bioavailability ([4]; human, in vivo, po) [%]	oral bioavailability (words) ([4]; human, in vivo, po)	oral bioavailability (words) ([4]; human, in vivo, po, listed as Marimastat)	half-life ([4]; oral) [h]	time to peak plasma concentrations post-administration ([4]; oral) [h]	half-life ([4]; delivered by iv infusion) [h]
O=S(=O)(O)CC(S)CS (centres unmarked) [DMPS, 2,3-dimercapto-1-propanesulfonic acid]	15	0.29 to 4.19	ineffective	–	–	–	–	–	–	–	–
CNC(=O)[C@@H](NC(=O)[C@H](CC(C)C)[C@H](O)C(=O)NO)C(C)(C)C [marimastat]	–	–	revealed clear venom anticoagulant effects	some protection	complete in vitro neutralization	70	excellent oral bioavailability	particularly good oral bioavailability	8 to 10	1.5 to 3	–
CCc1c(C(=O)C(N)=O)c2c(OCC(=O)O)cccc2n1Cc1ccccc1 [varespladib]	–	–	–	survived for longer periods of time than the venom only controls	–	–	good oral bioavailability	–	–	–	5
